The subject of test [1] is BRCA1 mRNA expression in MDA-MB-231 cells. The experiment in a line: qRT-PCR assay: BRCA1 mRNA expression in MDA-MB-231. It counts as cell-based, human. To be noted: Homo sapiens, MDA-MB-231, Inhibition of BRCA1 mRNA expression in MDA-MB-231 cells; median; read-out: RTqPCR-MDA-MB-231, IC50, BRCA1 (median). Summed up:
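GAPDH-normalised RT-qPCR measures the transcript after 24 h continuous compound treatment of cells seeded at 200,000/well one day earlier.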

Test [2] has as its system CAL-120, human breast adenocarcinoma cells. The experiment in a line: Proliferation assay CAL-120 (crystal violet, 4 days). Format: cell-based. To be noted: Homo sapiens, CAL-120, 96 h, CAL-120 cells, median, read-out: Prolif-CAL-120, IC50-[mol/l] (median). Summed up: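 Following a 24 h attachment in 10% fetal calf serum medium, cells receive test substance over 0.01-10 µmol/L for 4 days. Dye retained by fixed cells is eluted and read at 595 nm; cell number change is referenced to day-0 and untreated wells.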

Test [3] deals with CDK12/CycK (Homo sapiens, UniProt Q9NYV4). The experiment in a line: CDK12/CycK high ATP kinase assay (TR-FRET, 2 mM ATP). Format: biochemical. The note with it: 2 mM ATP (high ATP); median; read-out: CDK12/CyclinK, 2 mM ATP (high ATP), IC50-[mol/l] (median). Summed up:
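His-tagged human CDK12/CycK (~0.75 nM) pre-incubated 15 min with compound, then 60 min at 22 °C with 2 mM ATP and 1 µM biotinylated peptide (HEPES pH 7.5, 20 mM MgCl2). EDTA stop; phospho-Ser62 antibody/Eu anti-rabbit and streptavidin-XL665 TR-FRET, 665/620 nm ratio normalised to give IC50.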

CDK12/CycK, sequence (Q9NYV4 with tags, fused parts or gaps): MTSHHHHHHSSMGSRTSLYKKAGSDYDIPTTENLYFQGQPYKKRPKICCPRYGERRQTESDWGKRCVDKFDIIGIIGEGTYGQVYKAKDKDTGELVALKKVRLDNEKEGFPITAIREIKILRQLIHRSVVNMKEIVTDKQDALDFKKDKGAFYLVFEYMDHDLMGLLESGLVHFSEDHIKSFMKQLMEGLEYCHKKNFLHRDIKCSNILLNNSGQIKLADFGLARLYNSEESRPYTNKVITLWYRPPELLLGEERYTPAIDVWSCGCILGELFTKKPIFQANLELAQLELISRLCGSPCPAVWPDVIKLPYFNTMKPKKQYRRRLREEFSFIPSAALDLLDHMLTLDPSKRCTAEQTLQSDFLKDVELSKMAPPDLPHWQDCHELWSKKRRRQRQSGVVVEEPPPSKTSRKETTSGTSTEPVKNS
CDK12/CycK, sequence (O75909 1-300 partner limits assumed): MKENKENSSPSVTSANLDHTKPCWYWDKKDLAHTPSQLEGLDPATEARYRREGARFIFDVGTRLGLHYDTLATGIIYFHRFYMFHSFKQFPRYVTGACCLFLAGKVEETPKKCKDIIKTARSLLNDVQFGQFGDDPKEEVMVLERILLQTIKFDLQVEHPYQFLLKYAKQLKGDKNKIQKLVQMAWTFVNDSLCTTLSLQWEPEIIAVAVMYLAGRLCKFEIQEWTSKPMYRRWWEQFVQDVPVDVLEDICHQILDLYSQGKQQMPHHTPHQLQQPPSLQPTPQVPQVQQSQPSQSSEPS

Take `Fc1ccc2[nH]c(CNc3nc(N4CCOCC4)nc4c(Br)cnn34)nc2c1F` [Example 25, 8-bromo-N-[(4,5-difluoro-1H-benzimidazol-2-yl)methyl]-2-(morpholin-4-yl)pyrazolo[1,5-a][1,3,5]triazin-4-amine]: the IC50 amounted to 0.00301 µM in test [1], 0.00262 µM in test [2] and 0.731 µM in test [3].
With `Fc1ccc2[nH]c(CNc3nc(N4CCOCC4)nc4c(C5CC5(F)F)cnn34)nc2c1` (single isomer, unassigned) [Example 314, 8-[(1R or S)-2,2-difluorocyclopropyl]-N-[(5-fluoro-1H-benzimidazol-2-yl)methyl]-2-(morpholin-4-yl)pyrazolo[1,5-a][1,3,5]triazin-4-amine], the figures for the IC50 in test [1], in test [2] and in test [3] were 0.0357 µM, 0.013 µM and 9.92 µM, respectively.
As to `Fc1cccc2[nH]c(CNc3nc(N4CCOCC4)nc4c(C(F)(F)F)cnn34)nc12` [Example 274, N-[(4-fluoro-1H-benzimidazol-2-yl)methyl]-2-(morpholin-4-yl)-8-(trifluoromethyl)pyrazolo[1,5-a][1,3,5]triazin-4-amine], the IC50 in test [1] is 0.00192 µM; in test [2] it was 0.00489 µM; in test [3], 0.0395 µM.
As to `Brc1cnn2c(NCc3nc4ccccc4[nH]3)nc(N3C[C@H]4CC[C@@H]3CN4)nc12` (single isomer, unassigned) [Example 316, N-[(1H-benzimidazol-2-yl)methyl]-8-bromo-2-{[1R or S-(1R*4R*)]-2,5-diazabicyclo[2.2.2]octan-2-yl}pyrazolo[1,5-a][1,3,5]triazin-4-amine], the IC50 turned out to be 0.0124 µM in test [1], 0.00716 µM in test [2] and 2.92 µM in test [3].
Taken in the same sequence, the figures for `Fc1ccc2[nH]c(CNc3nc(N4CCOCC4)nc4c(C5CC5(F)F)cnn34)nc2c1F` (stereo not drawn) [Example 278, N-[(4,5-difluoro-1H-benzimidazol-2-yl)methyl]-8-(2,2-difluorocyclopropyl)-2-(morpholin-4-yl)pyrazolo[1,5-a][1,3,5]triazin-4-amine] were 0.00389 µM, 0.00754 µM and 2.44 µM.
Taken in the same sequence, the figures for `CCNC1CCN(c2nc(NCc3nc4ccccc4[nH]3)n3ncc(Br)c3n2)CC1` [Example 300] were 0.0126 µM, 0.0162 µM and more than 20 µM.
Taken in the same sequence, the figures for `Fc1ccc2[nH]c(CNc3nc(N4CCOCC4)nc4c(CC(F)(F)F)cnn34)nc2c1F` [Example 268, N-[(4,5-difluoro-1H-benzimidazol-2-yl)methyl]-2-(morpholin-4-yl)-8-(2,2,2-trifluoroethyl)pyrazolo[1,5-a][1,3,5]triazin-4-amine] were 0.00323 µM, 0.00559 µM and 2.13 µM.
Consider `Brc1cnn2c(NCc3nnc(-c4ccccc4)[nH]3)nc(N3CCOCC3)nc12` [Example 24, 8-bromo-2-(morpholin-4-yl)-N-[(5-phenyl-4H-1,2,4-triazol-3-yl)methyl]pyrazolo[1,5-a][1,3,5]triazin-4-amine], for which the IC50 amounted to 0.01 µM in test [1], 0.0357 µM in test [2] and 4.39 µM in test [3].
Taken in the same sequence, the figures for `CN1CCN(c2nc(NCc3nc4cc(Cl)ccc4[nH]3)n3ncc(C(F)(F)F)c3n2)CC1` [Example 298, N-[(5-chloro-1H-benzimidazol-2-yl)methyl]-2-(4-methylpiperazin-1-yl)-8-(trifluoromethyl)pyrazolo[1,5-a][1,3,5]triazin-4-amine] were 0.00412 µM, 0.00405 µM and 8.31 µM.
With `Fc1cccc2[nH]c(CNc3nc(N4C[C@H]5CC[C@@H](C4)N5)nc4c(C5CC5)cnn34)nc12` [Example 296, 8-cyclopropyl-2-[(1R,5S)-3,8-diazabicyclo[3.2.1]octan-3-yl]-N-[(4-fluoro-1H-benzimidazol-2-yl)methyl]pyrazolo[1,5-a][1,3,5]triazin-4-amine], the IC50 amounted to 0.00127 µM in test [1], 0.00152 µM in test [2] and 2.48 µM in test [3].
Taken in the same sequence, the figures for `NC1CCN(c2nc(NCc3nc4ccccc4[nH]3)n3ncc(Br)c3n2)CC1` [Example 256, 2-(4-aminopiperidin-1-yl)-N-[(1H-benzimidazol-2-yl)methyl]-8-bromopyrazolo[1,5-a][1,3,5]triazin-4-amine] were 0.00646 µM, 0.00997 µM and more than 20 µM.
Take `Fc1ccc2[nH]c(CNc3nc(N4CCOCC4)nc4c(CC(F)(F)F)cnn34)nc2c1` [Example 308, N-[(5-fluoro-1H-benzimidazol-2-yl)methyl]-2-(morpholin-4-yl)-8-(2,2,2-trifluoroethyl)pyrazolo[1,5-a][1,3,5]triazin-4-amine]: the IC50 in test [1] is 0.00546 µM; in test [2] it was 0.0102 µM; in test [3], 6.4 µM.
Regarding `CN(CC(C)(C)O)c1nc(NCc2nc3c(F)cccc3[nH]2)n2ncc(C3CC3)c2n1` [Example 295, 1-[(8-cyclopropyl-4-{[(4-fluoro-1H-benzimidazol-2-yl)methyl]amino}pyrazolo[1,5-a][1,3,5]triazin-2-yl)(methyl)amino]-2-methylpropan-2-ol], the IC50 in test [1] came out at 0.00481 µM; in test [2], 0.00725 µM; in test [3] it was 0.829 µM.
As to `CN(CC(C)(C)O)c1nc(NCc2nc3cc(F)c(Cl)cc3[nH]2)n2ncc(C3CC3)c2n1` [Example 317, 1-[(4-{[(6-chloro-5-fluoro-1H-benzimidazol-2-yl)methyl]amino}-8-cyclopropylpyrazolo[1,5-a][1,3,5]triazin-2-yl)(methyl)amino]-2-methylpropan-2-ol], the values for the IC50 in test [1], in test [2] and in test [3] were 0.0069 µM, 0.00366 µM and 0.979 µM, respectively.
Taken in the same sequence, the figures for `C[C@@H]1CN(c2nc(NCc3nc4ccccc4[nH]3)n3ncc(C4CC4)c3n2)C[C@H](C)N1` [Example 248, N-[(1H-benzimidazol-2-yl)methyl]-8-cyclopropyl-2-[(3R,5S)-3,5-dimethylpiperazin-1-yl]pyrazolo[1,5-a][1,3,5]triazin-4-amine] were 0.0016 µM, 0.00313 µM and 9.2 µM.
For the molecule `Brc1cnn2c(NCc3nc4ccccc4[nH]3)nc(N3CCC4(CCN4)CC3)nc12` [Example 291, N-[(1H-benzimidazol-2-yl)methyl]-8-bromo-2-(1,7-diazaspiro[3.5]nonan-7-yl)pyrazolo[1,5-a][1,3,5]triazin-4-amine], the IC50 in test [1] worked out at 0.0153 µM; in test [2], 0.0186 µM; in test [3], 10.7 µM.
Taken in the same sequence, the figures for `c1ccc2[nH]c(CNc3nc(N4C[C@@H]5C[C@H]4CO5)nc4c(C5CC5)cnn34)nc2c1` [Example 254, N-[(1H-benzimidazol-2-yl)methyl]-8-cyclopropyl-2-[(1S,4S)-2-oxa-5-azabicyclo[2.2.1]heptan-5-yl]pyrazolo[1,5-a][1,3,5]triazin-4-amine] were 0.0605 µM, 0.0877 µM and more than 20 µM.
Taken in the same sequence, the figures for `CN(CC1CC1)c1nc(NCc2nc3ccccc3[nH]2)n2ncc(Br)c2n1` [Example 287, N^4-[(1H-benzimidazol-2-yl)methyl]-8-bromo-N^2-(cyclopropylmethyl)-N^2-methylpyrazolo[1,5-a][1,3,5]triazine-2,4-diamine] were 0.0208 µM, 0.0332 µM and 10.7 µM.
`CN1CCN(c2nc(NCc3nc4cc(F)c(Cl)cc4[nH]3)n3ncc(C4CC4)c3n2)CC1` [Example 309, N-[(6-chloro-5-fluoro-1H-benzimidazol-2-yl)methyl]-8-cyclopropyl-2-(4-methylpiperazin-1-yl)pyrazolo[1,5-a][1,3,5]triazin-4-amine]: the results for the IC50 in test [1], in test [2] and in test [3] were 0.00583 µM, 0.00411 µM and more than 20 µM, respectively.
Taken in the same sequence, the figures for `COc1cccc2[nH]c(CNc3nc(N4CCOCC4)nc4c(CC(F)(F)F)cnn34)nc12` [Example 277, N-[(4-methoxy-1H-benzimidazol-2-yl)methyl]-2-(morpholin-4-yl)-8-(2,2,2-trifluoroethyl)pyrazolo[1,5-a][1,3,5]triazin-4-amine] were 0.00542 µM, 0.0309 µM and 4.79 µM.
With `Cc1cc2nc(CNc3nc(N4CCN(C)CC4)nc4c(C5CC5)cnn34)[nH]c2cc1C` [Example 312, 8-cyclopropyl-N-[(5,6-dimethyl-1H-benzimidazol-2-yl)methyl]-2-(4-methylpiperazin-1-yl)pyrazolo[1,5-a][1,3,5]triazin-4-amine], the IC50 in test [1] is 0.00204 µM; in test [2] it was 0.00232 µM; in test [3] it was 10.2 µM.
Take `CN1CCN(c2nc(NCc3nc4cc(F)c(F)cc4[nH]3)n3ncc(C4CC4)c3n2)CC1` [Example 311, 8-cyclopropyl-N-[(5,6-difluoro-1H-benzimidazol-2-yl)methyl]-2-(4-methylpiperazin-1-yl)pyrazolo[1,5-a][1,3,5]triazin-4-amine]: the IC50 is 0.00342 µM in test [1], 0.00813 µM in test [2] and more than 20 µM in test [3].

The values above are taken from patent US20230117034A1, “PYRAZOLOTRIAZINES” (Bayer Aktiengesellschaft, priority 2019, published 2023).
